Entries after “also recorded” stand apart in the source; their conditions may differ. Where two headings read alike, the source gives them in different places.

Assay [1] addresses T1, TLK2 (Homo sapiens, UniProt Q86UE8).
T1 construct: endogenous in cells; host or cells: SH-SY5Y
Briefly: KiNativ in-cell kinase binding, TLK2. The following applies: SH-SY5Y cells. The text has this:
(§1) As KINOMEscan is an in vitro assay, and as different cell types have variable kinase expression profiles we sought to determine the kinase binding profile in our SH-SY5Y TFEB-relocalization cell model. […] Bound kinases were pulled down and analyzed by mass spectrometry to determine the in situ kinase binding profile for each compound.

In assay [2] the target is T2, cellular kinases of SH-SY5Y cells (Homo sapiens, UniProt Q86SG6).
T2 construct: endogenous in cells; host or cells: SH-SY5Y
Briefly: biochemical. The assay is classed as binding. The following applies: 2µM; SH-SY5Y cells; Labeling Site Lys2; DLKTQNILLDK; read-out: KiNativ in-cell binding, % Inhibition, NEK9/NEK8.
From the text: as §1

The target of assay [3] is cellular kinases of SH-SY5Y cells (Homo sapiens, UniProt Q05397). Briefly: biochemical. The assay is classed as binding. The note with it: 2µM, SH-SY5Y cells, read-out: KiNativ in-cell binding, % Inhibition, PTK2/FAK.
cellular kinases of SH-SY5Y cells (Homo sapiens, UniProt Q05397), sequence (Q05397 whole entry): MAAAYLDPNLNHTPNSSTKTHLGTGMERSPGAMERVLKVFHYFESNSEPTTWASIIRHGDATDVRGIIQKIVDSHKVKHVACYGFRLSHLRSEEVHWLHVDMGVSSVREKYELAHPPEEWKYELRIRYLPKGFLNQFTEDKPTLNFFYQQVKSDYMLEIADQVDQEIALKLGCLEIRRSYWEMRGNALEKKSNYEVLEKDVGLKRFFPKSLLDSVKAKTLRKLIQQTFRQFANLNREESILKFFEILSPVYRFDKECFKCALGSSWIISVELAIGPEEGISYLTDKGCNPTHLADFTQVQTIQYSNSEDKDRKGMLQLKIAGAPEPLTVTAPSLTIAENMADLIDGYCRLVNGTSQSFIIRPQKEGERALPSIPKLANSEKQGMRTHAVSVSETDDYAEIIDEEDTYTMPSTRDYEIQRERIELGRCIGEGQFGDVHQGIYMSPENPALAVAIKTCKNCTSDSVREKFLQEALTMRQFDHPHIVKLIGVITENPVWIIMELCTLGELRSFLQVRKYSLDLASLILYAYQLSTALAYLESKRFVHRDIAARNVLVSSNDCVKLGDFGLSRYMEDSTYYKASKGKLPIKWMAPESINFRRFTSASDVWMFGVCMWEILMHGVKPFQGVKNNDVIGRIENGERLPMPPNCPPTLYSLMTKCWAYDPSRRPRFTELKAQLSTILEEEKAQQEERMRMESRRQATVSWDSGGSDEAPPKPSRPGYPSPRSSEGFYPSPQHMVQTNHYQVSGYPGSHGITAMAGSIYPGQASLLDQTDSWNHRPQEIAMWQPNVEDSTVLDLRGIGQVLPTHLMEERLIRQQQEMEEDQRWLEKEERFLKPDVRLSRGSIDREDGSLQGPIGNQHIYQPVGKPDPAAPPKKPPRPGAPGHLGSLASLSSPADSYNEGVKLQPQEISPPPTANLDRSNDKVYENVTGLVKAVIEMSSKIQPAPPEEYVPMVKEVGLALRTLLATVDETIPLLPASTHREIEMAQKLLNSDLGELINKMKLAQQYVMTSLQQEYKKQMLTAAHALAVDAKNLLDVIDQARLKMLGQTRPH
From the text: as §1

The target in assay [4] is cellular kinases of SH-SY5Y cells (Homo sapiens, UniProt Q16566). Briefly: biochemical. The assay is classed as binding. The following applies: 2µM, SH-SY5Y cells.
cellular kinases of SH-SY5Y cells (Homo sapiens, UniProt Q16566), sequence (Q16566 whole entry): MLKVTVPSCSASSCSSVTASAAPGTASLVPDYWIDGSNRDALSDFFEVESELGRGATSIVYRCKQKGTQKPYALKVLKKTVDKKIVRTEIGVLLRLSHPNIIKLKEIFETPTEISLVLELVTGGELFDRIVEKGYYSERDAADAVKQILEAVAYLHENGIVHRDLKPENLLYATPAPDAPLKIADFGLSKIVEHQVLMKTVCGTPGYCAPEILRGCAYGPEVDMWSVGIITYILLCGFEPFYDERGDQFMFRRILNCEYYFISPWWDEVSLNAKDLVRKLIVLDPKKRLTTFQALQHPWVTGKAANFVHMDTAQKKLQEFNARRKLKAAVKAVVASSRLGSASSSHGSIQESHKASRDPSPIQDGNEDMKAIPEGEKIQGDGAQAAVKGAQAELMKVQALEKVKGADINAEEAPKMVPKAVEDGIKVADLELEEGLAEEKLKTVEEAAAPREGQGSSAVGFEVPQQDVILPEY
From the text: as §1

The target of assay [5] is T3, cellular kinases of SH-SY5Y cells (Homo sapiens, UniProt Q13523).
T3 construct: endogenous in cells; host or cells: SH-SY5Y
Briefly: biochemical. The following applies: 2µM; SH-SY5Y cells; Labeling Site Lys2; CNILHADIKPDNILVNESK; read-out: KiNativ in-cell binding, % Inhibition, PRPF4B. It counts as binding.
From the text: as §1

In assay [6] the target is T4, cellular kinases of SH-SY5Y cells (Homo sapiens, UniProt O15021).
T4 construct: endogenous in cells; host or cells: SH-SY5Y
T4 sequence (O15021 whole entry): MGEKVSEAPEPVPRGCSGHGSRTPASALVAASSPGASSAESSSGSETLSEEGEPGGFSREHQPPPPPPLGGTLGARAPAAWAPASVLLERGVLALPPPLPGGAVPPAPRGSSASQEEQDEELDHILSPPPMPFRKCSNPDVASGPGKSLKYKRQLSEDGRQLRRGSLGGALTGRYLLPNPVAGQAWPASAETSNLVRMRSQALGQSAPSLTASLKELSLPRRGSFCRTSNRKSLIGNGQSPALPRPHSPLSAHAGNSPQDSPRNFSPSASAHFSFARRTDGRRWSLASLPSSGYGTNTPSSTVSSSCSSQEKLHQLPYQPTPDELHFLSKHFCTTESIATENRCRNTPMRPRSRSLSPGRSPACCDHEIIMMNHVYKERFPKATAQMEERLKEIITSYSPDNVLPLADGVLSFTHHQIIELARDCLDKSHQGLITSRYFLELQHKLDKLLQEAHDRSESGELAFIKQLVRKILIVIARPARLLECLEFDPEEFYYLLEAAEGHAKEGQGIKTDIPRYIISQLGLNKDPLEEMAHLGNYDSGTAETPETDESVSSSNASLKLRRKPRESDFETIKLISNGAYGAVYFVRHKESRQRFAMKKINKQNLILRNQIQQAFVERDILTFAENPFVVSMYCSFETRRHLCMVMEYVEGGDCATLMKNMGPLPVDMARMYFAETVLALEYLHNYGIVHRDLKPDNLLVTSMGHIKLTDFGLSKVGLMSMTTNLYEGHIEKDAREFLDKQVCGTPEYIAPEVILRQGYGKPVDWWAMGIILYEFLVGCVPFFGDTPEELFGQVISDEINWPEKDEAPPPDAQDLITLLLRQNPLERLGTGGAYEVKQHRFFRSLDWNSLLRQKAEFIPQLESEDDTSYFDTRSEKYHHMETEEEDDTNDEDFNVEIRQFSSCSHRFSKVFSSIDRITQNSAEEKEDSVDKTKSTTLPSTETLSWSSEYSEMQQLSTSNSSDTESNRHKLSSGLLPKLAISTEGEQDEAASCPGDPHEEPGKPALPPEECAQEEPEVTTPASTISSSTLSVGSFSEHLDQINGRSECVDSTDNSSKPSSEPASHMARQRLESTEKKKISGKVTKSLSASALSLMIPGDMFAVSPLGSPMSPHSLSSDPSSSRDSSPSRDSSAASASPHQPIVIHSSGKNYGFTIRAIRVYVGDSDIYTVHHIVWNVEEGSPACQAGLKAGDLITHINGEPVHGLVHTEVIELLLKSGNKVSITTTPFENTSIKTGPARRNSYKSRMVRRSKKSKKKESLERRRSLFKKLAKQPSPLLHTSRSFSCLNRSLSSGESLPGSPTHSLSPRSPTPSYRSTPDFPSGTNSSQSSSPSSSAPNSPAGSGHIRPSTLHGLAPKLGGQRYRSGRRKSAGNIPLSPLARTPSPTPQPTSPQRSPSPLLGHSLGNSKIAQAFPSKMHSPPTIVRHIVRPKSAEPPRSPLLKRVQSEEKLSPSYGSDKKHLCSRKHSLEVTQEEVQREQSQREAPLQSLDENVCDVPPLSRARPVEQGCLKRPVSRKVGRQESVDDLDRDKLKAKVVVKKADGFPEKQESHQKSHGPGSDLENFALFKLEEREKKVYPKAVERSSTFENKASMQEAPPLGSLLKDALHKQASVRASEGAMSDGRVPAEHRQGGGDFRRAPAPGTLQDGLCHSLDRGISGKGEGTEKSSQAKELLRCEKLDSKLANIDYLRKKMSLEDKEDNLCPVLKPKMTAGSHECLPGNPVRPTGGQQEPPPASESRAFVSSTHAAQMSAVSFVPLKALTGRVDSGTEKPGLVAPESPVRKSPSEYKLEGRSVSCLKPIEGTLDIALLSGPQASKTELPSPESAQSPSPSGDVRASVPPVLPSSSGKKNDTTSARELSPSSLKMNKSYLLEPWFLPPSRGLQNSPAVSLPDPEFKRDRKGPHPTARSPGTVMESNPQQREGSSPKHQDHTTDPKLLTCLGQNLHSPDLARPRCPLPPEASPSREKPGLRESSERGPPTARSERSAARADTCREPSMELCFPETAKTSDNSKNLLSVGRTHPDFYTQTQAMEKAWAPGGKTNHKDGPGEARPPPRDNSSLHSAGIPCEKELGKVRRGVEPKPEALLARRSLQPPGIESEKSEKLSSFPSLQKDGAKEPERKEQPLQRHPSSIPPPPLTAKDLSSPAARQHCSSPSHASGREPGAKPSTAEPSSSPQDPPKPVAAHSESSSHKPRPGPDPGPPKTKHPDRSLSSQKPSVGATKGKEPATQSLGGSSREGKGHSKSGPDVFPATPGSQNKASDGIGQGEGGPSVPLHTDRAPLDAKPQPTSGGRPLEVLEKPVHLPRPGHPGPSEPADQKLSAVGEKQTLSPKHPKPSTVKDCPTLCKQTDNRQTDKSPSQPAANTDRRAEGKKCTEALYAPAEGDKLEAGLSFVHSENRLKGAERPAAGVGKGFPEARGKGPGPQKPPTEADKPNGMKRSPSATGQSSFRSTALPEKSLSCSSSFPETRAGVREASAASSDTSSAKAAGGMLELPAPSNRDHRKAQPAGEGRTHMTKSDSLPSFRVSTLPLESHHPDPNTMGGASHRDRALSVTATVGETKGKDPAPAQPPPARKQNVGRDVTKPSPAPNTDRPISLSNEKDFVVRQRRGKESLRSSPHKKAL
Briefly: biochemical. The assay is classed as binding. The following applies: 2µM; SH-SY5Y cells; Labeling Site Lys2; DLKPDNLLVTSMGHIK; read-out: KiNativ in-cell binding, % Inhibition, MAST4.
From the text: as §1

For assay [7], the target named is T5, cellular kinases of SH-SY5Y cells (Homo sapiens, UniProt Q13188).
T5 construct: endogenous in cells; host or cells: SH-SY5Y
Briefly: biochemical. It counts as binding. The following applies: 2µM; SH-SY5Y cells; Labeling Site Lys1; ESGQVVAIKQVPVESDLQEIIK; read-out: KiNativ in-cell binding, % Inhibition, STK3/MST2.
From the text: as §1

Assay [8] concerns the target T6, cellular kinases of SH-SY5Y cells (Homo sapiens, UniProt Q9C0K7).
T6 construct: endogenous in cells; host or cells: SH-SY5Y
Briefly: biochemical. The assay is classed as binding. The following applies: 2µM; SH-SY5Y cells; labeling site Lys1; peptide HTPTGTLVTIKITNLENCNEER
From the text: as §1

The target of assay [9] is T7, cellular kinases of SH-SY5Y cells (Homo sapiens, UniProt Q9Y572).
T7 construct: endogenous in cells; host or cells: SH-SY5Y
Briefly: biochemical. The following applies: 2µM; SH-SY5Y cells; Labeling Site Lys2; DLKPSNVLLDPELHVK; read-out: KiNativ in-cell binding, % Inhibition, RIPK3. The assay is classed as binding.
From the text: as §1

Assay [10] has as its target cellular kinases of SH-SY5Y cells (Homo sapiens, UniProt Q16512). Briefly: biochemical. It counts as binding. The following applies: 2µM; SH-SY5Y cells; Labeling Site Lys1; VLLSEFRPSGELFAIKALK; read-out: KiNativ in-cell binding, % Inhibition, PKN1.
From the text: as §1

The target of assay [11] is cellular kinases of SH-SY5Y cells (Homo sapiens, UniProt P51617). Briefly: biochemical. The assay is classed as binding. The following applies: 2µM; SH-SY5Y cells; labeling site Lys2; peptide AIQFLHQDSPSLIHGDIKSSNVLLDER
From the text: as §1

In assay [12] the target is T8, cellular kinases of SH-SY5Y cells (Homo sapiens, UniProt P51956).
T8 construct: endogenous in cells; host or cells: SH-SY5Y
Briefly: biochemical. It counts as binding. The following applies: 2µM; SH-SY5Y cells; Labeling Site Activation Loop; SKNIFLTQNGK; read-out: KiNativ in-cell binding, % Inhibition, NEK3.
From the text: as §1

Assay [13] concerns TFE3. Briefly: TFE3 translocation in CRISPRi PRKD2 or PRKD3 knockdown SH-SY5Y cells. It counts as cell-based. The following applies: SH-SY5Y dCas9-KRAB, Scr, PRKD2 or PRKD3 targeting guides, increasing concentrations.
In assay [14] the target is T9, PRKD2 (Homo sapiens, UniProt Q9BZL6).
T9 sequence (Q9BZL6 1-878): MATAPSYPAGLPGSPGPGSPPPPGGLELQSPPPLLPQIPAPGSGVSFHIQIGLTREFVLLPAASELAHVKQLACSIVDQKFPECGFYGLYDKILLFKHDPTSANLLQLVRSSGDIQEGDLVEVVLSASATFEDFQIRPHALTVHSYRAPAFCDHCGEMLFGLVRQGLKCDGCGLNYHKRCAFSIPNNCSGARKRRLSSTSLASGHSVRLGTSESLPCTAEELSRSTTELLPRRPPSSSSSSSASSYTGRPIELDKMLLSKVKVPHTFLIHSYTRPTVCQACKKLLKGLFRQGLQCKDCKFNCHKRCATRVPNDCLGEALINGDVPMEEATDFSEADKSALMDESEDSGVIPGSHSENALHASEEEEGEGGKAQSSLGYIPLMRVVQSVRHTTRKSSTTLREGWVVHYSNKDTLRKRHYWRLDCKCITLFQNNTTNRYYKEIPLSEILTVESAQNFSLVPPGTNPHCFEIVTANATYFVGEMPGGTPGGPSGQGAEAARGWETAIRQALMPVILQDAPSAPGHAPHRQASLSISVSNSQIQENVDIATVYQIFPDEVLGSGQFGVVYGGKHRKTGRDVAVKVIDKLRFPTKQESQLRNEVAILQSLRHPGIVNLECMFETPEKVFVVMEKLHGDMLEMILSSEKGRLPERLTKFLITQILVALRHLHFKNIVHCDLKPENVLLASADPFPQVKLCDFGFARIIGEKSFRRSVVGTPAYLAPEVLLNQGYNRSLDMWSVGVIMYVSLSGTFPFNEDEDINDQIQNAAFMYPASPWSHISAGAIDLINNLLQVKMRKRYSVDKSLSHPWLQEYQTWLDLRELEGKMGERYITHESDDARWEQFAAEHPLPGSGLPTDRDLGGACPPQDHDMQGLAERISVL
Briefly: KiNativ in-cell kinase binding, PRKD2. Set-up: endogenous in cells; host or cells: SH-SY5Y.
From the text: as §1

In assay [15] the target is MAPK9/JNK2 (Homo sapiens, UniProt P45984). The assay is classed as binding.
For assay [16], the target named is MINK1/MINK (Homo sapiens, UniProt Q8N4C8). It counts as binding.

T1 sequence (Q86UE8 whole entry): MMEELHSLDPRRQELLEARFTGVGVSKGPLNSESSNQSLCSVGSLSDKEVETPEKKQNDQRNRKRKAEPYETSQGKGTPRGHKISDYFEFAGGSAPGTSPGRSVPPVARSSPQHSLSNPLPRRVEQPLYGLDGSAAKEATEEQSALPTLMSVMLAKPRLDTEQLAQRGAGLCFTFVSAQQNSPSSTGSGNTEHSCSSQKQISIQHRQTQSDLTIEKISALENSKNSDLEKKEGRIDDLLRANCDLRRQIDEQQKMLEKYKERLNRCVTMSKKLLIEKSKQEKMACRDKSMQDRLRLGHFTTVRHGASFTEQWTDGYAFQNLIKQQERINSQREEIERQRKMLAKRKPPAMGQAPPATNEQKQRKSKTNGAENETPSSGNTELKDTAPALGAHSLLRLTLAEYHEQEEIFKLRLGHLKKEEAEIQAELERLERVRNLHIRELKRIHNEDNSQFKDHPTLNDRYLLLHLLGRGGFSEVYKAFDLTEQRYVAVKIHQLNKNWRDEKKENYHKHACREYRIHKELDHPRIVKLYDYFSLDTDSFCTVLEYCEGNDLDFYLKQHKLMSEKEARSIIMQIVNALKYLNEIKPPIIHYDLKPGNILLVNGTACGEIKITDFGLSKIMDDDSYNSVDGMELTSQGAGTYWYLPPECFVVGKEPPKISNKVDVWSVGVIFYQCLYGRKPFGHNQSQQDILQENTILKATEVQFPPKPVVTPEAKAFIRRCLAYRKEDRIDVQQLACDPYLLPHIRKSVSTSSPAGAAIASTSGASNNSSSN

Turning to `Cc1cccc(-c2nc(Nc3ccc4ncsc4c3)c3ccccc3n2)n1` [NK140], the inhibition at 2 µM in [1] (Labeling Site Lys1, YVAVKIHQLNK) was 52.7%; in assay [1] (Labeling Site Lys2, YLNEIKPPIIHYDLKPGNILLVNGTACGEIK), 50%; in assay [2], 15.8%; in assay [3] (Labeling Site Activation Loop, YMEDSTYYKASK) it was 16.9%; in assay [3] (Labeling Site Lys1, CIGEGQFGDVHQGIYMSPENPALAVAIKTCK) it was 18%; in assay [5] it was 32.3%. The inhibition at 2 µM is 27.2% in assay [6]; 31.6% in assay [7]; 26.1% in [9]; 3% in [10]; -13.4% in [12]; 51.7% in assay [14] (2µM, SH-SY5Y cells, Labeling Site Lys1, […]). Moreover, the “KiNativ in-cell binding, CaMK4” value was -10.9 in assay [4] (labeling site Lys1, peptide GTQKPYALKVLK) and -28.9 in [4] (labeling site Lys2, peptide DLKPENLLYATPAPDAPLK). The “KiNativ in-cell binding, STRADB” value in [8] was 0.5. Further, the “KiNativ in-cell binding, IRAK1” value in assay [11] was -26.5. The “TFE3 nuclear translocation in response to compound after PRKD knockdown (in words)” value in assay [13] is reported as “no increased activity in the TFE3 translocation assay; also recorded: not altered by knockdown of PRKD”. Besides, in assay [14] (SH-SY5Y cells treated 2 h), the “KiNativ binding of PRKD2 (in words)” value is reported as “bound”.
`Cc1cccc(-c2nc(N(C)c3ccc4ncsc4c3)c3ccccc3n2)n1` [NK-161]: the “KINOMEscan MAPK9/JNK2” value in assay [15] worked out at 7. Further, the “KINOMEscan MINK1/MINK” value in assay [16] came out at 22.

Values taken from article PMC9851200, “Multiparameter phenotypic screening for endogenous TFEB and TFE3 translocation identifies novel chemical series modulating lysosome function” (Autophagy, 2022).
